Data taken from US20030171375A1, “Method for treating ocular neovascular diseases” (priority 2002, published 2003).

How the values were obtained:
[1] = target: T1, C-Met (Homo sapiens, UniProt P08581); experiment: standard tyrosine kinase assay: phosphorylation of poly(GluTyr) by GST-fusion kinase domain; format: biochemical; settings: kinase inhibitory profile
T1 construct: GST-fusion proteins of the kinase domains of several tyrosine kinase receptors; GST

[2] = test system: other RTKs including VEGF receptors; experiment: standard tyrosine kinase assay, other RTKs; format: biochemical
[3] = target: T2, Tie-2 (Homo sapiens, UniProt Q02763); experiment: standard tyrosine kinase assay: phosphorylation of poly(GluTyr) by GST-fusion kinase domain; format: biochemical; settings: kinase inhibitory profile
T2 construct: GST-fusion proteins of the kinase domains of several tyrosine kinase receptors; GST
T2 sequence (Q02763 824-1096 limits assumed, species assumed): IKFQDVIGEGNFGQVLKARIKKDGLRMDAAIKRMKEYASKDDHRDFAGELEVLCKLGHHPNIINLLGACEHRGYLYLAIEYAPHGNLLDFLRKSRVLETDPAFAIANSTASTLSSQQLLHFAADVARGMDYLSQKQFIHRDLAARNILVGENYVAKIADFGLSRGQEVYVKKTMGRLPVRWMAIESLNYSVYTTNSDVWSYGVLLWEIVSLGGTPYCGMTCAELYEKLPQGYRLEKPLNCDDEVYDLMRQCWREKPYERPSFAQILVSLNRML

[4] = target: T3, Flk-1 (Mus musculus, UniProt P35918); experiment: as above; format: biochemical; settings: kinase inhibitory profile, Table I
T3 construct: GST-fusion proteins of the kinase domains of several tyrosine kinase receptors; GST
T3 sequence (P35918 832-1160 limits assumed): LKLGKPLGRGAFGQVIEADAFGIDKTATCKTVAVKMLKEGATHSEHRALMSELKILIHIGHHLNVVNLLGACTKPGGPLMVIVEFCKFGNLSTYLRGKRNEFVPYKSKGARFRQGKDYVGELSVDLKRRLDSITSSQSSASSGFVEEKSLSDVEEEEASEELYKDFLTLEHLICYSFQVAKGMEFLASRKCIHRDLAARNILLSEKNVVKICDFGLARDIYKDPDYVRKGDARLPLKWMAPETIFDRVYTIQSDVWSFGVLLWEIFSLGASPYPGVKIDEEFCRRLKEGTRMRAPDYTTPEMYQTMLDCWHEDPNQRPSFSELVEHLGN

[5] = test system: VEGF receptors; experiment: cellular autophosphorylation assay, Chinese hamster ovary cells transfected with RTK gene; settings: transfected CHO cells
Experimental: (§1) In vivo activity requires drugs to enter cells and therefore agents are tested in cellular autophosphorylation assays, using Chinese hamster ovary cells transfected with one of several RTK genes.

[6] = target: T4, Flt-1 (Homo sapiens, UniProt P17948); experiment: standard tyrosine kinase assay: phosphorylation of poly(GluTyr) by GST-fusion kinase domain; format: biochemical
T4 construct: GST-fusion proteins of the kinase domains of several tyrosine kinase receptors; GST
T4 sequence (P17948 827-1158 limits assumed): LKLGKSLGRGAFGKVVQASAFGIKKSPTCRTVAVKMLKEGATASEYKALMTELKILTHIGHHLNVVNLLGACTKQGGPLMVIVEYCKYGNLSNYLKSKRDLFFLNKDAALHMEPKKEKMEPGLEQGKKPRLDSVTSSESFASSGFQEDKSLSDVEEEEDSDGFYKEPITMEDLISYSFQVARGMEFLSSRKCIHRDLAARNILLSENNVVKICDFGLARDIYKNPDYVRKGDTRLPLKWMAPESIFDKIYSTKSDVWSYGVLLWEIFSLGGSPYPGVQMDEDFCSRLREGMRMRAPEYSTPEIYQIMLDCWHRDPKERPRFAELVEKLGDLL

[7] = test system: PDGF receptors; experiment: cellular autophosphorylation assay, Chinese hamster ovary cells transfected with RTK gene; format: cell-based; settings: transfected CHO cells
Experimental: as §1

[8] = test system: mice with choroidal neovascularization; experiment: laser-induced choroidal neovascularization in mice; settings: 50 mg/kg/day by gavage, two weeks after laser
[9] = test system: mice with ischemic retinopathy; experiment: retinal neovascularization in mice with oxygen-induced ischemic retinopathy; settings: P17 mice
Experimental: Ischemic retinopathy is produced in C57/BL6J mice by the following method: Seven-day-old mice and their mothers are placed in an airtight incubator and exposed to an atmosphere of 75±3% oxygen for 5 days. Incubator temperature is maintained at 23±2° C., and oxygen is measured every 8 hours with an oxygen analyzer. After 5 days, the mice are removed from the incubator, placed in room air, and drug treatment is begun. […] Vehicle (control) or vehicle containing various concentrations of drug (volume =50 μl in neonates and 100 μl in adult mice) is placed in the stomach by gavage. After 5 days of treatment at P17, mice are sacrificed, eyes are rapidly removed and frozen in optimum cutting temperature embedding compound (OCT; Miles Diagnostics, Elkhart, IN) or fixed in 10% phosphate-buffered formalin and embedded in paraffin. Adult C57BL6J mice are also treated by gavage with drug or vehicle and after 5 days, they are sacrificed and their eyes are processed for frozen or paraffin sections.
Slides are rinsed with 0.05M Tris-buffered saline, pH 7.6 (TBS) and incubated 2 hours at room temperature with biotinylated lectin. […] Some slides are counterstained with hematoxyfn and all are mounted with Cytoseal.
The entire eye is sampled by staining sections roughly 50-60 μm apart, which provided 13 sections per eye for analysis. […] The mean of the 13 measurements from each eye is used as a single experimental value.

[10] = test system: developing retinal vessels of neonatal mice; experiment: drug treatment of mice during retinal vascular development; format: in vivo, C57/BL6J mice
Experimental: […] of newborn C57/BL6J mice are divided into treatment and control groups which received daily subcutaneous injections of 10 mg/kg of drug or vehicle, respectively. At P7 or P10, mice are anesthetized with ether, and perfused with 1 ml of phosphate-buffered saline containing 50 mg/ml of fluorescein-labeled dextran (2×10^6 average mw, Sigma, St. Louis, Mo.).. The eyes are removed and fixed for 1 hour in 10% phosphate-buffered formalin. The cornea and […] are removed and the entire retina is carefully dissected from the eyecup, radially cut from the edge of the retina to the equator in all 4 quadrants, and flat-mounted in Aquamount. with photoreceptors facing upward.

[11] = test system: retinal vessels in adult mice; experiment: effect on retinal vessels in adult mice; format: in vivo, C57BL6J mice; settings: 50 mg/kg/day, 5 days
Experimental: Ischemic retinopathy is produced in C57/BL6J mice by the following method: Seven-day-old mice and their mothers are placed in an airtight incubator and exposed to an atmosphere of 75±3% oxygen for 5 days. Incubator temperature is maintained at 23±2° C., and oxygen is measured every 8 hours with an oxygen analyzer. After 5 days, the mice are removed from the incubator, placed in room air, and drug treatment is begun. […] Vehicle (control) or vehicle containing various concentrations of drug (volume =50 μl in neonates and 100 μl in adult mice) is placed in the stomach by gavage. After 5 days of treatment at P17, mice are sacrificed, eyes are rapidly removed and frozen in optimum cutting temperature embedding compound (OCT; Miles Diagnostics, Elkhart, IN) or fixed in 10% phosphate-buffered formalin and embedded in paraffin. Adult C57BL6J mice are also treated by gavage with drug or vehicle and after 5 days, they are sacrificed and their eyes are processed for frozen or paraffin sections. […] Slides are rinsed with 0.05M Tris-buffered saline, pH 7.6 (TBS) and incubated 2 hours at room temperature with biotinylated lectin. […] Some slides are counterstained with hematoxyfn and all are mounted with Cytoseal. […] The mean of the 13 measurements from each eye is used as a single experimental value.

[12] = target: c-erbB2 (Homo sapiens, UniProt P04626); experiment: cellular autophosphorylation assay, Chinese hamster ovary cells transfected with RTK gene; settings: transfected CHO cells
c-erbB2, sequence (P04626 23-1255): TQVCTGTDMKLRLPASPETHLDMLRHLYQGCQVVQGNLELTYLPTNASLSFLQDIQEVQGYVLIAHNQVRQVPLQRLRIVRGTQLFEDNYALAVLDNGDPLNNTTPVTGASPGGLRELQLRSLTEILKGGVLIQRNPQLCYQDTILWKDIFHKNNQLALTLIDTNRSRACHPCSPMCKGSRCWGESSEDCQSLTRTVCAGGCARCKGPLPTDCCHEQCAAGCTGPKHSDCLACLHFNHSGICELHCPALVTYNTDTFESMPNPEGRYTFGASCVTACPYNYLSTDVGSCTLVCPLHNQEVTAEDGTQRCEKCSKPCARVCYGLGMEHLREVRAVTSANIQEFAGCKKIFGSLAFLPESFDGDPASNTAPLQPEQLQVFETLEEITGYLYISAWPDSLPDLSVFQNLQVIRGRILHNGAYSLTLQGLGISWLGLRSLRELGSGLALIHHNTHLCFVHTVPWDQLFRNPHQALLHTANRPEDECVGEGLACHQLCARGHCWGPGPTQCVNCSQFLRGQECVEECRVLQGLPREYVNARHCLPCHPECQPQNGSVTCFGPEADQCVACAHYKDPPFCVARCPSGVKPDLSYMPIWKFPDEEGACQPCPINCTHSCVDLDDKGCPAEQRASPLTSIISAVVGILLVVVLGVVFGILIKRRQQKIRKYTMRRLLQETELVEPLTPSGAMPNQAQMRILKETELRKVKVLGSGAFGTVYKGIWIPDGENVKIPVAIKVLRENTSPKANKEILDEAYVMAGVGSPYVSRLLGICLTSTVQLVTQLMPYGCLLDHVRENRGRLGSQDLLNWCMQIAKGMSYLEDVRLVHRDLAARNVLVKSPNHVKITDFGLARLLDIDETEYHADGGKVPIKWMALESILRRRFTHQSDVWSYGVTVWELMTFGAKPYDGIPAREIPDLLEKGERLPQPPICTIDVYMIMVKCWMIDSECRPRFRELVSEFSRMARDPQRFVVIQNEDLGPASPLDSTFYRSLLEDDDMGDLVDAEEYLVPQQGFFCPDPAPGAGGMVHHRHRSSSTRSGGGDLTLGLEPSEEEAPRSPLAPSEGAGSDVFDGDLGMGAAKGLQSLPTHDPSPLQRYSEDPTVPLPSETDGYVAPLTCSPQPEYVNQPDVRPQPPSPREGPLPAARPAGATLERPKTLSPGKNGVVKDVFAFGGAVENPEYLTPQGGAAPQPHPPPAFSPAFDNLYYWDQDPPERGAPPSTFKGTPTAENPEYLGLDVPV
Experimental: as §1

[13] = target: insulin receptor (Homo sapiens, UniProt P06213); experiment: as above; settings: transfected CHO cells
insulin receptor, sequence (P06213 28-1382, species assumed): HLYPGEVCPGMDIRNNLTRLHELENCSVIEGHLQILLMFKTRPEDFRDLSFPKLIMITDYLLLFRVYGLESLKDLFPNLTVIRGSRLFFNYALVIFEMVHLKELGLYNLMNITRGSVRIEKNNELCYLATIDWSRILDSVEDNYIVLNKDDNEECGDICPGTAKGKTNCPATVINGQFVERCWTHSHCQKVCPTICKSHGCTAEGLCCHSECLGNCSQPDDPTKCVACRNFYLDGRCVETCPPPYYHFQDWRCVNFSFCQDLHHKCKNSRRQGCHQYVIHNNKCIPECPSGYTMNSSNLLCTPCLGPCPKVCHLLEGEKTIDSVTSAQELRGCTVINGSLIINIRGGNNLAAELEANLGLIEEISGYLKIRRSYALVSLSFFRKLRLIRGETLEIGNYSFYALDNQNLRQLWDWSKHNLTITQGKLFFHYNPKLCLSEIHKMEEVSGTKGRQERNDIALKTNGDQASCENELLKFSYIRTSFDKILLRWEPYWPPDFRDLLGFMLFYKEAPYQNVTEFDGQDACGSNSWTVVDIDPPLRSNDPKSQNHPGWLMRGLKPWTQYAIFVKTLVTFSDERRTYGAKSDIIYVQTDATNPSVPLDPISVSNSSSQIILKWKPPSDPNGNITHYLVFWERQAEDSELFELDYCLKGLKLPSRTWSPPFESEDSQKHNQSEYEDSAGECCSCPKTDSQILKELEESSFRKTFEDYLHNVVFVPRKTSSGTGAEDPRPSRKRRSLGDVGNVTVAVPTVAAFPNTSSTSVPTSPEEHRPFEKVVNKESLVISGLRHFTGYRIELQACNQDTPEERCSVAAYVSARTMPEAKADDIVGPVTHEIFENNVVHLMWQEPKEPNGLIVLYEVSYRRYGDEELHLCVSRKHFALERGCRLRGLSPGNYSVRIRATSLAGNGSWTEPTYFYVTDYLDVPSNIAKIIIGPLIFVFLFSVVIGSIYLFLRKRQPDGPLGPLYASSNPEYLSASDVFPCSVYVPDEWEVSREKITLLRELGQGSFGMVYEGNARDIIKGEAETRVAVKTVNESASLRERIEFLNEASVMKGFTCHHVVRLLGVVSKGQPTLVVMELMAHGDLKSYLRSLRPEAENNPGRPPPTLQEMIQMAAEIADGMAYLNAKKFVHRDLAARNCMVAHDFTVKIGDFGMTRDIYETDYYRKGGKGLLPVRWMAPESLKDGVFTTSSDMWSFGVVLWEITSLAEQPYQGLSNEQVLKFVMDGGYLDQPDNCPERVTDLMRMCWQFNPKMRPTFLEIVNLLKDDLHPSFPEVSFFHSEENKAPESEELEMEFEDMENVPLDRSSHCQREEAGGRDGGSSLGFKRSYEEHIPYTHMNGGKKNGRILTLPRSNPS
Experimental: as §1

[14] = target: c-Kit (Homo sapiens, UniProt P10721); settings: transfected CHO cells
c-Kit, sequence (P10721 26-976): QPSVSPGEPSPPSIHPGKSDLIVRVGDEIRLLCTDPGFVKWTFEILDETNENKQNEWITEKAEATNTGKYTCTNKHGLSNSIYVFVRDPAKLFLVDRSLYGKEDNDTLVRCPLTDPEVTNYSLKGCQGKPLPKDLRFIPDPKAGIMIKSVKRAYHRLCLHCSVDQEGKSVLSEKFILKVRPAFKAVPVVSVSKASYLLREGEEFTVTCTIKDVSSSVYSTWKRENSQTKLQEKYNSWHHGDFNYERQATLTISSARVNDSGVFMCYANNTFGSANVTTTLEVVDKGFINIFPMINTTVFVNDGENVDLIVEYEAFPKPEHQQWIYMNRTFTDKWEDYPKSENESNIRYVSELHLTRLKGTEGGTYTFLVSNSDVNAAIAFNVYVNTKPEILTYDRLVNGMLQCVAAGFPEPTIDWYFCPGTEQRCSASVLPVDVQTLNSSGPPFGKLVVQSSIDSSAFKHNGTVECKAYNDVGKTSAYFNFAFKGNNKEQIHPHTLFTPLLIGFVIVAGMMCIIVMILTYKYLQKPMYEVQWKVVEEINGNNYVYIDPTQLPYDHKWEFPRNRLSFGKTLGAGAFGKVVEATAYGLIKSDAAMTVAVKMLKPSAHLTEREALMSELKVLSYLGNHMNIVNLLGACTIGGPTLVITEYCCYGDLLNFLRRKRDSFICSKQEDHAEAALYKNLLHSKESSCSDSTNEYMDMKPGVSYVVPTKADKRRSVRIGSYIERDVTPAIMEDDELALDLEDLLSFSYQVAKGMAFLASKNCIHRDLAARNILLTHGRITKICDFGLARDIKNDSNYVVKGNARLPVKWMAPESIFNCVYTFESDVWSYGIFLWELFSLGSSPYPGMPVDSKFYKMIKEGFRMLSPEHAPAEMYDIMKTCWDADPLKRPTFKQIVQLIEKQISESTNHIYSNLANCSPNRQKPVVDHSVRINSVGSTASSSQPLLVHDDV

T1 sequence (P08581 1078-1345 limits assumed): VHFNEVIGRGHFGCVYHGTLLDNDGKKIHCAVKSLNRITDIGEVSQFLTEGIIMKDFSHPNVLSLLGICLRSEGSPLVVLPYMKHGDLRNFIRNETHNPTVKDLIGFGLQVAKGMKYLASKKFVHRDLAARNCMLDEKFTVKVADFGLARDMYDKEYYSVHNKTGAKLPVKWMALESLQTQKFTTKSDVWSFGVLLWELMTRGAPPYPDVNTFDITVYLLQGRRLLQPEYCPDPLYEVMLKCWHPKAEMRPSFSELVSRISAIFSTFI

## Cc1ccc(NC(=O)c2ccccc2)cc1Nc1nccc(-c2cccnc2)n1 [CGP 53 716]
[1]
  IC50: > 10000 nM
[2]
  inhibitory activity on other RTKs including VEGF receptors: little or no inhibitory activity
[3]
  IC50: > 1000 nM
[4]
  IC50: > 1000 nM
[5]
  inhibition of autophosphorylation of VEGF receptors: poor inhibitors
[6]; kinase inhibitory profile
  IC50: > 1000 nM
[7]
  inhibition of autophosphorylation of PDGF receptors: potent inhibitors

## Cc1ccc(NC(=O)c2ccc(CN3CCN(C)CC3)cc2)cc1Nc1nccc(-c2cccnc2)n1 [CGP 57 148B]
[2]
  inhibitory activity on other RTKs including VEGF receptors: little or no inhibitory activity
[5]
  inhibition of autophosphorylation of VEGF receptors: poor inhibitors
[7]
  inhibition of autophosphorylation of PDGF receptors: potent inhibitors

## Clc1ccc(Nc2nnc(Cc3ccncc3)c3ccccc23)cc1 [CGP 79787D]
[8]
  appearance of overlying retinal vessels: appeared normal
  choroidal neovascularization at site of laser-induced rupture of Bruch's membrane: very little if any choroidal neovascularization
[9]; 0.25 mg/kg
  decrease of total endothelial staining in the retina: not statistically significant
  staining in the inner nuclear layer: no identifiable decrease
[9]; 2.5 mg/kg twice a day
  endothelial cell staining in the retina: significantly less than vehicle-treated controls
  endothelial staining in the inner nuclear layer: some decrease
[9]; 25 mg/kg twice a day
  endothelial cell staining in inner nuclear layer and outer plexiform layer (deep capillary bed): striking absence
[9]; 25 mg/kg twice a day, gavage, 5 days
  neovascularization (endothelial cells on the surface of the retina): complete inhibition
[9]; 25 mg/kg twice a day, gavage, 5 days, versus vehicle
  endothelial cell staining within the retina: dramatic decrease
[10]; 10 mg/kg daily injections from P0, P7
  extension of retinal vessels toward the periphery at P7: only extended about half way to the periphery
[10]; 10 mg/kg daily injections from P0, P10
  extension of superficial capillary bed at P10: has not yet reached the edge of the retina
[11]
  total area of endothelial staining in the retina or appearance of retinal vessels versus vehicle: no difference
[12]
  inhibition of autophosphorylation of c-erbB2: poor inhibitor
[5]
  inhibition of autophosphorylation of VEGF receptors: inhibits
[13]
  inhibition of autophosphorylation of insulin receptor: poor inhibitor
[6]
  inhibition of phosphorylation by kinase domain of human VEGF receptor 1: good inhibitor
[7]
  inhibition of autophosphorylation of PDGF receptors: inhibits
[14]
  inhibition of autophosphorylation of c-Kit: inhibits
